In experiment [1] the test system is SCN2A iAstrocytes co-cultured with mouse neurons. The experiment can be described thus: co-culture of CuATSM-pretreated SCN2A iAstrocytes with mouse GFP neurons. The format is cell-based, human. Conditions: 3 days in culture. As for the experimental part: FIG. 8A) Schematic protocol of iNeuron reprogramming from patient fibroblasts. Fibroblast cells were seeded on 12-well plates and differentiated for 7 days into iNeurons. iNeurons were fixed and imaged/immunostained for Tuj1 neuronal marker. FIG. 8B) Representative images of fibroblasts (before) and iNeurons after reprogramming. FIG. 8C) Representative bright field images of iNeurons following seven days of differentiation (scale bar=50 μm). On day five of differentiation, cells were treated with 0.01% of CuATSM as well as on day seven. FIG. 8D) Quantification of neuron survival percentage after seven days of differentiation. Tuj1 positive cells from three to five different images per line were counted and data was normalized to the average count of healthy control. FIG. 8E) Schematic of drug screen co-culture assay. Astrocytes were treated during differentiation with CuATSM. […] 24 hours later mouse neurons were seeded on top of astrocyte monolayer and viability was determined following 3 days in culture. […]
The effect of CuATSM treatment on SCN2A iAstrocytes mediated neuron toxicity was investigated. […] Neuron survival was quantified following seven days of differentiation by counting cells with neurites two times the soma length. […] Twenty-four hours later, motor neurons were seeded on top of the astrocyte monolayer and viability was determined following 3 days in culture. […]

In experiment [2] the test system is ALS iAstrocytes. The experiment can be described thus: Seahorse glycolysis (glycoPER), mitochondrial coupling and fuel dependency in iAstrocytes. The class given is cell-based, human. The method, then: Oxygen consumption rate (OCR) and extracellular acidification rate (ECAR) were used to calculate glycolytic […] efflux rate (glycoPER), which quantifies media acidification by lactate production. Total cellular glycolysis (FIG. 12B) is measured following mitochondrial shutdown (difference between basal and AA/Rot injection). Percent mitochondrial coupling (FIG. 12C) was calculated using values from basal and/or ATP-linked respiration using data from FIG. 2. […] Dashed bars indicate patient lines classified as nonresponders in co-culture assay. Dotted line represents average control values. Data represents a minimum of 3 independent experiments. Statistical analysis was performed using one way ANOVA comparing average controls.
The impact of CuATSM on mitochondrial activity and glycolysis was assessed using the Seahorse. iAstrocytes were seeded on a 24 or 96 well Seahorse plate for extracellular flux analysis. Oxygen consumption rate (OCR) and extracellular acidification rate (ECAR) were used to calculate glycolytic […] efflux rate (glycoPER), which quantifies media acidification by lactate production. Total cellular glycolysis (FIG. 13A) is measured following inhibition of mitochondrial electron transport chain. Mitochondrial coupling (FIG. 13B) was calculated using values for basal and/or ATP-linked respiration obtained from FIG. 3. Dashed bars indicate patient lines classified as nonresponders in co-culture assay. […] In addition, slight mitochondrial uncoupling was observed which may explain the previously observed reduction in mitochondrial activity. Dotted line represents average control values. Data for FIGS. 13A-13B represents a minimum of 3 independent experiments. Statistical analysis was performed using a student t-test comparing treated lines against corresponding untreated controls.
The effect of CuATSM on mitochondrial dependency on glutamine (FIG. 16A), fatty acid (FIG. 16B) and glucose (FIG. 16C) oxidation is determined using the Seahorse. Basal oxygen consumption (OCR) was measured for three time points followed by a pathway specific inhibitor (UK5099, etomoxir, BPTES). The difference in OCR following inhibitor addition determines mitochondrial fuel dependency on specific pathway tested. […] Dotted line represents average control values. Data represents a minimum of 3 independent experiments. Statistical analysis was performed using one way ANOVA comparing the average of controls.
Astrocytes provide critical metabolic support for motor neurons by releasing lactate that can be used as a source of energy, thus glycolysis is a key metabolic phenotype of astrocytes. […] Based on these observations it was next determined whether CuATSM was impacting mitochondrial coupling. […]

From patent publication US20220280561A1, “COPPER-ATSM FOR TREATING NEURODEGENERATIVE DISORDERS ASSOCITED WITH MITOCHONDRIAL DYSFUNCTION” (RESEARCH INSTITUTE AT NATIONWIDE CHILDREN'S HOSPITAL, priority 2019, published 2022) come the findings set out here.

As to `CN=C([S-])N/N=C(C)/C(C)=N/NC([S-])=NC.[Cu+2]` [CuATSM, diacetyl-bis(4-methylthiosemicarbazonato) copperII], the “neuron survival following co-culture” value was “significantly increase neuron survival” in experiment [1] (SCN2A-1 and SCN2A-3 iAstrocytes pretreated during differentiation); “trend towards increased survival” in experiment [1] (SCN2A-2 iAstrocytes pretreated during differentiation). Also, the “mitochondrial dependency on glucose” value in experiment [2] (CuATSM nonresponders) is “not changed”. Besides, the mitochondrial coupling result in experiment [2] (all iAstrocytes treated with CuATSM) is “modest, yet significant reduction in coupling”. In experiment [2] (every cell line tested, including responders, nonresponders and healthy controls), the cellular glycolysis entry was “significant increase in cellular glycolysis”. In addition, in experiment [2] (patient iAstrocytes, changes are patient specific), the “mitochondrial dependency on glutamine, fatty acid and glucose oxidation” value was “does not impact mitochondrial metabolic dependency”.
